Measured values published in patent publication US7935853B2, “Micronized composition of a 2,4-disubstituted phenol derivative” (priority 2008, dated 2011).
Several values for one entry are separate records, joined by “and”; a condition that tells them apart may be missing. Equal values may be shown once.

Tested on: pulmonary fibrosis induced by bleomycin in C57/BL6 mice
Experiment: Model of pulmonary fibrosis induced by bleomycin in mice (bronchoalveolar lavage fluid)
Format: in vivo, mouse
Procedure: In the study, female, young and healthy C57/BL6 mice were used, of approximately 9-10 weeks of age at the start of the experimental phase. The choice of C57/BL6 mice was because this is the most commonly used mouse strain in the pulmonary fibrosis model.
Three experimental groups were used in the study:
Group A: (positive control): Bleomycin+Vehicle (PBS) n=10
Group B: Bleomycin+2,4,6-triiodophenol micronized 10 mg/kg q.d. (every 12 hours) n=10
Group C: No treatment (healthy animals) n=1
Where n is the number of animals in each experimental group.
The test item was administered as a suspension in 0.25% methylcellulose (the vehicle). The positive control group received the vehicle.
Both the test item and the vehicle were administered orally in a volume of 5 ml/kg twice per day (q.d.) every 12 hours.
On day 0 pulmonary fibrosis was induced by intratracheal instillation of 0.075 units of bleomycin in 50 μl of sterile saline solution into the lungs of each animal. Immediately afterwards 150 μl of air were introduced intratracheally into each mouse to aid in the pulmonary distribution of the bleomycin.
On day 7 after bleomycin administration, treatment with the test item or vehicle was commenced by oral administration. Treatment was carried out twice per day (every 12 hours) and was continued for 15 days.
On day 21 after bleomycin administration a bronchoalveolar lavage was carried out on all animals. To this effect, mice were anaesthetized with sodium pentobarbital and the trachea of each animal was cannulated. Afterwards 1 ml of PBS at 37° C. was instilled into each lung and re-aspirated back with the use of a syringe. This process was repeated 5 times, each time collecting the aspirated liquid in a vial and combining the liquid obtained from the 5 lavages. The recovered volume of bronchoalveolar lavage was adjusted for all animals to 5 mls.
Once the bronchoalveolar lavage fluid had been obtained, a sample was taken in order to determine cellular viability by trypan blue exclusion. Additionally, a sample of lavage fluid was kept frozen (−20° C.) for subsequent determination of CCL5 and TGF-β concentration by ELISA.
The remaining bronchoalveolar lavage fluid was spun in a cytocentrifuge and stained (Diff-Quick) in order to carry out a differential cell count.
All animals were weighed on arrival at the laboratory and each day during the treatment phase of the experimental period until the end of the study.
For each animal cell viability in bronchoalveolar lavage fluid was determined by Trypan Blue exclusion, and a differential cell count was done by staining cytocentrifuged samples with Diff-Quick stain (this was done on a population of approximately 200 cells per sample). Additionally, the concentration of CCL5 and TGF-β were also determined in bronchoalveolar lavage fluid samples by the use of commercially available ELISA kits specific for mice chemokines from R&D Systems.
The statistical significance of the results was evaluated by use of the statistical package Graphpad Instat 3.
All comparisons were evaluated by the use of Student's t-test (two-way, unpaired data). Values of P≦0.05 were taken as significant.

[1] = 10 mg/kg oral twice per day, starting 7 days after bleomycin
[2] = group mean, day 21, 10 mg/kg oral twice per day from day 7
[3] = group mean, day 21 after bleomycin, 10 mg/kg oral twice per day from day 7
[4] = individual mice, day 21, 10 mg/kg oral twice per day from day 7, listed as Group B, 10 mg/kg

## Oc1c(I)cc(I)cc1I [Micronized, 2,4,6-triiodophenol]
[1]
  effect on bleomycin-induced increase of CCL5 and TGFβ in bronchoalveolar lavage fluid (in words): very significant inhibition
  effect on bleomycin-induced lymphocyte and neutrophil percentages in bronchoalveolar lavage fluid (in words): reduction of the bleomycin-induced increase in lymphocytes and neutrophil percentages
[2]
  CCL5 concentration in BALF, mean: 6.952 pg/mL
  TGFβ concentration in BALF, mean: 40.731 pg/mL
[3]
  Lymphocytes, differential cell count in bronchoalveolar lavage fluid (%): 34.35%
  Macrophages, differential cell count in bronchoalveolar lavage fluid (%): 60.33%
  Neutrophils, differential cell count in bronchoalveolar lavage fluid (%): 5.32%
[4]
  CCL5 concentration in BALF, individual animals: 1.887 pg/mL and 3.041 pg/mL and 6.426 pg/mL and 24.658 pg/mL and 3.426 pg/mL and 2.272 pg/mL
  TGFβ concentration in BALF, individual animals: 6.319 pg/mL and 8.389 pg/mL and 26.335 pg/mL and 38.069 pg/mL and 121.586 pg/mL and 9.770 pg/mL and 74.651 pg/mL
